The test system of experiment [1] is Cabbage Looper (CL) (Trichoplusia ni). Kind of experiment: Bioassays on CL, 128-well diet tray assay. The settings on record: 168 h, 50 μg/cm^2 on artificial diet, second instar larvae, five to seven days, 25° C., read-out: CL Rating (percent mortality). It counts as in vivo. The protocol:
(§1) Certain molecules disclosed in this document were tested against BAW, CEW and CL using procedures described in the following examples. In the reporting of the results, the “BAW & CEW & CL Rating Table” was used (See Table Section).
Bioassays on CL (Trichoplusia ni)
Bioassays on CL were conducted using a 128-well diet tray assay. One to five second instar CL larvae were placed in each well (3 mL) of the diet tray that had been previously filled with 1 mL of artificial diet to which 50 μg/cm^2 of the test compound (dissolved in 50 μL of 90:10 acetone-water mixture) had been applied (to each of eight wells) and then allowed to dry. Trays were covered with a clear self-adhesive cover, and held at 25° C., 14:10 light-dark for five to seven days. Percent mortality was recorded for the larvae in each well; activity in the eight wells was then averaged. The results are indicated in the table entitled “Table 4: Assay Results Part 2” (See Table Section).

Experiment [2] relates to Beet Armyworm (BAW) (Spodoptera exigua). Kind of experiment: Bioassays on BAW, 128-well diet tray assay. It counts as in vivo. The conditions noted are these: Spodoptera exigua, 168 h; 50 μg/cm^2 on artificial diet, second instar larvae, five to seven days, 25° C.; read-out: BAW Rating (percent mortality). The protocol: as §1
Bioassays on BAW (Spodoptera exigua)
Bioassays on BAW were conducted using a 128-well diet tray assay. One to five second instar BAW larvae were placed in each well (3 mL) of the diet tray that had been previously filled with 1 mL of artificial diet to which 50 μg/cm^2 of the test compound (dissolved in 50 μL of 90:10 acetone-water mixture) had been applied (to each of eight wells) and then allowed to dry. Trays were covered with a clear self-adhesive cover, and held at 25° C., 14:10 light-dark for five to seven days. Percent mortality was recorded for the larvae in each well; activity in the eight wells was then averaged. The results are indicated in the tables entitled “Table 3: Assay Results Part 1” and “Table 4: Assay Results Part 2” (See Table Section).

These results are taken from US9212164B2, “Pesticidal compositions and processes related thereto” (Dow AgroSciences LLC, priority 2012, dated 2015).

As usually defined, the mortality is the share of the test organisms that died. In the case of `COCCCNC(=O)C1(NC(=O)c2ccc(/C=C/C(c3cc(Cl)c(Cl)c(Cl)c3)C(F)(F)F)cc2Br)CC1` (stereo not drawn) [FA18], the mortality at 50 µg/cm2 in experiment [1] and in experiment [2] was 50 to 100% each time.
In the case of `O=C(NC1(C(=O)NC2CCSC2)CC1)c1ccc(/C=C/C(c2cc(Cl)c(Cl)c(Cl)c2)C(F)(F)F)cc1Br` (stereo not drawn) [FA19], the mortality at 50 µg/cm2 in experiment [1] and in experiment [2] was 50 to 100% in each case.
Turning to `O=C(NC1(C(=O)NC2COC2)CC1)c1ccc(/C=C/C(c2cc(Cl)c(Cl)c(Cl)c2)C(F)(F)F)cc1Br` (stereo not drawn) [FA20], the mortality at 50 µg/cm2 in experiment [1] and in experiment [2] was 50 to 100% throughout.
Take `O=C(NC1(C(=O)NCC2CCOC2)CC1)c1ccc(/C=C/C(c2cc(Cl)c(Cl)c(Cl)c2)C(F)(F)F)cc1Br` (stereo not drawn) [FA21]: the mortality at 50 µg/cm2 in experiment [1] and in experiment [2] was 50 to 100% in each case.
Regarding `O=C(NC1(C(=O)NC2CCCCC2)CC1)c1ccc(/C=C/C(c2cc(Cl)c(Cl)c(Cl)c2)C(F)(F)F)cc1Br` (stereo not drawn) [FA22], the mortality at 50 µg/cm2 in experiment [1] is 50 to 100%; in experiment [2], 0%.
For the compound `O=C(NC1(C(=O)NCCn2cccn2)CC1)c1ccc(/C=C/C(c2cc(Cl)c(Cl)c(Cl)c2)C(F)(F)F)cc1Br` (stereo not drawn) [FA23], the mortality at 50 µg/cm2 in experiment [1] and in experiment [2] was 50 to 100% throughout.
As to `O=C(NC1(C(=O)NCCn2ccnc2)CC1)c1ccc(/C=C/C(c2cc(Cl)c(Cl)c(Cl)c2)C(F)(F)F)cc1Br` (stereo not drawn) [FA24], the mortality at 50 µg/cm2 is 0% in experiment [1] and 0 to 50% in experiment [2].
As for `O=C(NC1(C(=O)NC2CCOC2)CC1)c1ccc(/C=C/C(c2cc(Cl)c(Cl)c(Cl)c2)C(F)(F)F)cc1Br` (stereo not drawn) [FA25], the mortality at 50 µg/cm2 in experiment [1] and in experiment [2] was 50 to 100% each time.
Regarding `O=C(NC1(C(=O)NCc2cccc(C(F)(F)F)c2)CC1)c1ccc(/C=C/C(c2cc(Cl)c(Cl)c(Cl)c2)C(F)(F)F)cc1Br` (stereo not drawn) [FA26], the mortality at 50 µg/cm2 in experiment [1] and in experiment [2] was 50 to 100% in each case.
Regarding `O=C(NC1(C(=O)NCc2cccc(Cl)c2)CC1)c1ccc(/C=C/C(c2cc(Cl)c(Cl)c(Cl)c2)C(F)(F)F)cc1Br` (stereo not drawn) [FA27], the mortality at 50 µg/cm2 in experiment [1] and in experiment [2] was 50 to 100% throughout.
Consider `COCCNC(=O)C1(NC(=O)c2ccc(/C=C/C(c3cc(Cl)c(Cl)c(Cl)c3)C(F)(F)F)cc2Br)CC1` (stereo not drawn) [FA28], for which the mortality at 50 µg/cm2 in experiment [1] and in experiment [2] was 50 to 100% throughout.
For `O=C(NC1(C(=O)NCc2ccccc2Cl)CC1)c1ccc(/C=C/C(c2cc(Cl)c(Cl)c(Cl)c2)C(F)(F)F)cc1Br` (stereo not drawn) [FA29], the mortality at 50 µg/cm2 in experiment [1] and in experiment [2] was 50 to 100% each time.
Consider `CC(C)CNC(=O)C1(NC(=O)c2ccc(/C=C/C(c3cc(Cl)c(Cl)c(Cl)c3)C(F)(F)F)cc2Br)CC1` (stereo not drawn) [FA30], for which the mortality at 50 µg/cm2 in experiment [1] and in experiment [2] was 50 to 100% throughout.
On to `O=C(NC1(C(=O)NCC(F)F)CC1)c1ccc(/C=C/C(c2cc(Cl)c(Cl)c(Cl)c2)C(F)(F)F)cc1Br` (stereo not drawn) [FA32], for which the mortality at 50 µg/cm2 in experiment [1] and in experiment [2] was 50 to 100% in each case.
Take `COc1ccc(CNC(=O)C2(NC(=O)c3ccc(/C=C/C(c4cc(Cl)c(Cl)c(Cl)c4)C(F)(F)F)cc3Br)CC2)cc1` (stereo not drawn) [FA33]: the mortality at 50 µg/cm2 in experiment [1] and in experiment [2] was 50 to 100% throughout.
With `O=C(NC1(C(=O)NCc2ccc(C(F)(F)F)cc2)CC1)c1ccc(/C=C/C(c2cc(Cl)c(Cl)c(Cl)c2)C(F)(F)F)cc1Br` (stereo not drawn) [FA34], the mortality at 50 µg/cm2 in experiment [1] and in experiment [2] was 50 to 100% each time.
As to `COc1cccc(CNC(=O)C2(NC(=O)c3ccc(/C=C/C(c4cc(Cl)c(Cl)c(Cl)c4)C(F)(F)F)cc3Br)CC2)c1` (stereo not drawn) [FA35], the mortality at 50 µg/cm2 in experiment [1] and in experiment [2] was 50 to 100% in each case.
`O=C(NC1(C(=O)Nc2ccc(C(F)(F)F)cc2)CC1)c1ccc(/C=C/C(c2cc(Cl)c(Cl)c(Cl)c2)C(F)(F)F)cc1Br` (stereo not drawn) [FA36]: the mortality at 50 µg/cm2 in experiment [1] and in experiment [2] was 0% in each case.
